From the Deep4Chem optical property database come the findings set out here.

Where “and” joins values, the source holds several entries; their conditions need not be identical. Equal values may be shown once.

The nature of the data set: solvent given as SMILES.

Turning to `COc1nc(Nc2ccc3c4c(cccc24)C(=O)c2ccccc2-3)nc(OC)n1`, the emission maximum came out at 554.02 nm (in CC#N); 533.9 nm (in CC(C)=O); 576.04 nm (in CC(C)O); 516 nm (in CCCCOCCCC); 523.01 nm (in CCOC(C)=O); 520.02 nm (in CCOCC). For the same compound, the emission maximum reads like this: (in CO) 586.85 nm; (in Cc1ccccc1) 521.92 nm; (in Clc1ccccc1) 526.87 nm; (in N#Cc1ccccc1) 535.91 nm; (in O=C1CCCCC1) 531.91 nm.

In the case of `C(=C\c1nc2ccccc2[nH]1)/c1ccc(-c2nc3c4cccnc4c4ncccc4c3[nH]2)cc1`, the emission maximum is, setting by setting: (in C1CCOC1) 444 nm; (in CC#N) 450 nm; (in CO) 452 nm; (in ClCCl) 447 nm.

Compound `Cc1ccc2c(c1)nc1c(=O)n(C)c(=O)nc-1n2C` showed an emission maximum (in CC#N) of 532 nm.

`CC(C)[Si](C#Cc1c2nc3ccccc3nc2c(C#C[Si](C(C)C)(C(C)C)C(C)C)c2nc3c(ccc4ccccc43)nc12)(C(C)C)C(C)C` came in with an emission maximum (in CCCCCC) of 656 nm.

`CCCCN1C(=O)C2=C(c3ccc(-c4ccccc4)cc3)NC(=O)C2=C1c1ccc(-c2ccccc2)cc1` returned an emission maximum (in ClCCl) of 545 nm.

Where the note is “in CN(C)C=O”, `CCN(CC)c1ccc(-c2nc(Oc3ccc(-c4nc5ccc(Cl)cc5o4)cc3)nc(Oc3ccc(-c4nc5ccc(Cl)cc5o4)cc3)n2)cc1` showed an emission maximum of 424 nm.

For `Clc1ccc2nc3cc4ccccc4cc3c(-c3ccccc3)c2c1`, the emission maximum (in ClCCl) is on record as 527 nm.

`CCOC(=O)c1c(-c2cc3ccccc3oc2=O)nn(-c2ccccc2)c1C(=O)OCC` returned an emission maximum (in ClCCl) of 401 nm.

With `c1ccc(-c2nc(-c3ccccc3)nc(-c3ccc(-n4c5ccc(-n6c7ccccc7c7ccccc76)cc5c5cc(-n6c7ccccc7c7ccccc76)ccc54)cc3)n2)cc1`, the emission maximum (in Cc1ccccc1) was found to be 458 nm; the emission maximum (in O=P(c1ccccc1)(c1ccccc1)c1ccccc1Oc1ccccc1P(=O)(c1ccccc1)c1ccccc1) was 475 nm and 450.31 nm.

The compound `O=C(O)CCCOc1cc2ccc3cccc4ccc(c1)c2c34` came in with an emission maximum (in CO) of 382 nm.

`CCCCCOc1ccc2c(c1)c1ccc3cccc4c5cc(OC)cc6oc(=O)c2c(c65)c1c34`: where the note is “in C1CCOC1”, the emission maximum is listed as 454 nm.

On to `O=C1C=Cc2cc3ccccc3c(=O)n21`, for which the emission maximum by setting is: (in CC#N) 410 nm; (in CO) 450 nm; (in CS(C)=O) 420 nm; (in ClC(Cl)Cl) 410 nm.

Under “in C1CCOC1”, `O=C(c1ccc(C(=C(c2ccc(C(=O)c3ccc(-n4c5ccccc5c5ccccc54)cc3)cc2)c2ccc(C(=O)c3ccc(-n4c5ccccc5c5ccccc54)cc3)cc2)c2ccccc2)cc1)c1ccc(-n2c3ccccc3c3ccccc32)cc1` returned an emission maximum of 503 nm.

On to `CN(C)c1ccc(N2c3sc4ccccc4c3Sc3c2sc2ccccc32)cc1`, for which the emission maximum (in ClCCl) is on record as 556 nm.
